From paper PMC10837133, “Molecular basis of Spns2-facilitated sphingosine-1-phosphate transport” (Cell Research, 2023)

Experiments:
[1] = biological target: T1, Spns2 (Spinster homolog 2) (Homo sapiens, UniProt Q8IVW8); assay: cell-based FTY720-P transport assay, WT vs mutants
T1 sequence (Q8IVW8 1-549): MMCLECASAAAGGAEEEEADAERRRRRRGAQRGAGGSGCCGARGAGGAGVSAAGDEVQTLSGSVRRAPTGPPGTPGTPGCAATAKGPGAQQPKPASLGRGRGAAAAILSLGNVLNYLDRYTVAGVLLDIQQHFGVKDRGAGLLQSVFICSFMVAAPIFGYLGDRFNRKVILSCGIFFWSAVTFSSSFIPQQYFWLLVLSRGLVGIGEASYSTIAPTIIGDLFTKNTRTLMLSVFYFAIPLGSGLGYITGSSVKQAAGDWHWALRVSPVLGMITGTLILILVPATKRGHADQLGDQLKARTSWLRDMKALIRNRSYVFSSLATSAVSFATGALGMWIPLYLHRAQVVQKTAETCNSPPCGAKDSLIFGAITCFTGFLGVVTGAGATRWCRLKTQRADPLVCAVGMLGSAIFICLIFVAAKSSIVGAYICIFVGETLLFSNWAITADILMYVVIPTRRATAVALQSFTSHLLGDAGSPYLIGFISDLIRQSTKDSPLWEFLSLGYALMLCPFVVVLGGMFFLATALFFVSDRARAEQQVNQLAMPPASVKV

[2] = biological target: T2, Spns2 (Spinster homolog 2) (Homo sapiens, UniProt Q8IVW8); assay: cryo-EM structure ([…] Å); affinity selection mass spectrometry; cell-based S1P efflux assay; assay type: binding
T2 construct: Spns2fusion: PGS (Pyrococcus abyssi glycogen synthase) fused between F222 and T223 on intracellular loop 2
T2 sequence (Q8IVW8 1-222 limits assumed): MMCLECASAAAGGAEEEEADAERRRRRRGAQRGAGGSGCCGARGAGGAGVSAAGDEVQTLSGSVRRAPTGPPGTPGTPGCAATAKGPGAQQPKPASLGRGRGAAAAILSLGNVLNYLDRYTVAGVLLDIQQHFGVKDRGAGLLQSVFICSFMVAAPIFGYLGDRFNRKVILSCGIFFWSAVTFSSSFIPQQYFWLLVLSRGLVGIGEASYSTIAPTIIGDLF
T2 sequence (Q8IVW8 223-549 limits assumed): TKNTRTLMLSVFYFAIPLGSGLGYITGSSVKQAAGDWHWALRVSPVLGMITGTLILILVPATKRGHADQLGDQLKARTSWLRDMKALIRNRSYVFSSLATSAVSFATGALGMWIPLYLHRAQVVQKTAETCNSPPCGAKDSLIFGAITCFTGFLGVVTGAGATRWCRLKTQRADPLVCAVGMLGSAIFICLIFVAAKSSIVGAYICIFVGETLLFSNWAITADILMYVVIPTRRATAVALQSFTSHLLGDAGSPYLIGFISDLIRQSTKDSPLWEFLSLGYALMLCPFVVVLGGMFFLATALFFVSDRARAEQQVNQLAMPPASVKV

## CCCCCCCCc1ccc(CC[C@](N)(CO)COP(=O)(O)O)cc1 [FTY720-P]
[1]
  cell-based FTY720-P transport assay, WT vs mutants: substitutions also significantly decreased FTY720-P transport activity, which indicates a similar FTY720-P transport mechanism as S1P

## CCCCCCCCCCCCC/C=C/[C@@H](O)[C@@H](N)COP(=O)(O)O [S1P, sphingosine-1-phosphate]
[2]
  cryo-EM structure (3.60 Å); affinity selection mass spectrometry; cell-based S1P: The affinity selection mass spectrometry results confirmed that endogenous S1P bound to Spns2fusion
